Experimental data published in publication PMC6662757, “A small molecule inhibitor of ER-to-cytosol protein dislocation exhibits anti-dengue and anti-Zika virus activity” (Scientific Reports, 2019).

Key:
OS9 = molecular target: T1, OS9 (Homo sapiens, UniProt Q13438); test: cellular thermal shift assay (CETSA), immunoblot; type: cell-based; settings: HeLa cells treated with 10 µM CP26, 37 °C, 2 h, then lysed in 0.4% NP-40 and heated 3 min; direct target within the Hrd1 complex not defined
T1 construct: endogenous protein in HeLa cells, heated in NP-40 lysate; component of the Hrd1 complex
T1 sequence (Q13438 26-667): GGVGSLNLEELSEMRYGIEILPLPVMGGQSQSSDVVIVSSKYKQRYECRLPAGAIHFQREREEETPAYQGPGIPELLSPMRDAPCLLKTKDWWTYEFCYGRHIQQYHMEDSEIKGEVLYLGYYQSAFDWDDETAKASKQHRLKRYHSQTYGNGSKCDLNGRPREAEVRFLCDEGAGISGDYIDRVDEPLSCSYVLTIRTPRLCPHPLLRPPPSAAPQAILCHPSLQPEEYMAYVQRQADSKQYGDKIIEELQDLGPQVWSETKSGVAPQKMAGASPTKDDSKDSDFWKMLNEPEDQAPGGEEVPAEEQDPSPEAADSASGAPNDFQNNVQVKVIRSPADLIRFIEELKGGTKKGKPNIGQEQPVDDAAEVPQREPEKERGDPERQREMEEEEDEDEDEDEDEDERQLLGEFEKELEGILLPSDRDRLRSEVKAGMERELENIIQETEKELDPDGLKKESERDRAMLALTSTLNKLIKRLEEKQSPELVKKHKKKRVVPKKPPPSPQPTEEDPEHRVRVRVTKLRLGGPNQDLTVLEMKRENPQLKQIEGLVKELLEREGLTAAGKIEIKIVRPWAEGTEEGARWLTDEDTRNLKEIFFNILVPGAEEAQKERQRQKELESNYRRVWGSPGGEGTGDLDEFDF

Derlin2 = molecular target: T2, Derlin2 (Homo sapiens, UniProt Q9GZP9); test: cellular thermal shift assay (CETSA), immunoblot; type: cell-based; settings: HeLa cells treated with 10 µM CP26, 37 °C, 2 h, then lysed in 0.4% NP-40 and heated 3 min; direct target within the Hrd1 complex not defined
T2 construct: gene DERL2; endogenous protein in HeLa cells, heated in NP-40 lysate; component of the Hrd1 complex
T2 sequence (Q9GZP9 1-239): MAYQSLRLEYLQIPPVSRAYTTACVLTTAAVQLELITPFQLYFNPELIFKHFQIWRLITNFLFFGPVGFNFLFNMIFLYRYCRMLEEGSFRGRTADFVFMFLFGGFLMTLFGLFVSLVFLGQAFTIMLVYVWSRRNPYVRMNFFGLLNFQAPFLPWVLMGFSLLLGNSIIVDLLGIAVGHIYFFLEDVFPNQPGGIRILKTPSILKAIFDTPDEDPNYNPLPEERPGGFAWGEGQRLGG

Structure (SMILES): Cc1ccc(C=C2C(Cl)=C(Cl)C(Cl)=C2Cl)cc1 [CP26, 1-methyl-4-[(2,3,4,5-tetrachlorocyclopenta-2,4-dien-1-ylidene)methyl]benzene]
- thermal stability increase (OS9): CP26 selectively increased the thermal stability of Derlin2 and OS9
- thermal stability increase (Derlin2): CP26 selectively increased the thermal stability of Derlin2 and OS9
